#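 Interpolation was linear, between the two tested concentrations surrounding the appropriate level; five concentrations were tested over 48 hours in 96-well plates. TGI marks complete inhibition of growth.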
# Experiments:
# Assay in all cases: NCI-60 cell line screen, 48 h
# CAKI-1 renal = test system: CAKI-1 renal
# SF-268 CNS = test system: SF-268 CNS
# HT29 colon = test system: HT29 colon
# EKVX NSCLC = test system: EKVX NSCLC
# SF-539 CNS = test system: SF-539 CNS
# U251 CNS = test system: U251 CNS
# NCI-H460 lung = test system: NCI-H460 lung
# SNB-75 CNS = test system: SNB-75 CNS
# MDA-N = test system: MDA-N
# NCI/ADR-RES ovarian = test system: NCI/ADR-RES ovarian
# CCRF-CEM leukemia = test system: CCRF-CEM leukemia
# OVCAR-3 ovarian = test system: OVCAR-3 ovarian
# SK-MEL-5 melanoma = test system: SK-MEL-5 melanoma
# ACHN renal = test system: ACHN renal
# HCC-2998 colon = test system: HCC-2998 colon
# DU-145 prostate = test system: DU-145 prostate
# HCT-15 colon = test system: HCT-15 colon
# SW-620 colon = test system: SW-620 colon
Structure (SMILES),TGI (CAKI-1 renal) [µM],TGI (SF-268 CNS) [µM],TGI (HT29 colon) [µM],TGI (EKVX NSCLC) [µM],TGI (SF-539 CNS) [µM],TGI (U251 CNS) [µM],TGI (NCI-H460 lung) [µM],TGI (SNB-75 CNS) [µM],TGI (MDA-N) [µM],TGI (NCI/ADR-RES ovarian) [µM],TGI (CCRF-CEM leukemia) [µM],TGI (OVCAR-3 ovarian) [µM],TGI (SK-MEL-5 melanoma) [µM],TGI (ACHN renal) [µM],TGI (HCC-2998 colon) [µM],TGI (DU-145 prostate) [µM],TGI (HCT-15 colon) [µM],TGI (SW-620 colon) [µM]
COC(=O)C1(Cc2ccc3c(c2)CCC3)Cc2ccc3c(c2C1)CCC3 (centres undefined),79.2,> 100,33.9,> 100,> 100,37.1,73.2,> 100,41,72.8,> 100,60.1,40.2,73.2,> 100,> 100,> 100,69.7
O=C1NC(=O)C(COCc2ccccc2)C2=C1SCCC2 (centres undefined),> 100,> 100,> 100,> 100,> 100,> 100,> 100,> 100,> 100,> 100,> 100,> 100,> 100,> 100,> 100,> 100,> 100,> 100
O=C1/C(=C/c2c(Cl)[nH]c3ccccc23)c2ccccc2N1c1ccccc1,> 100,33.2,18.9,27.2,7.44,22.9,14.4,37.8,3.8,6.55,31.9,6.26,,57.2,20.7,32.9,15,41.7
Cc1cc2nc(-c3c(F)cccc3F)n(Cc3c(F)cccc3F)c2cc1C,37.7,42.7,34,22.7,34.3,24.1,49.7,26.1,38.4,44.9,60.9,31.8,26.5,35.4,21.4,50.5,27.6,35
COC(=O)[C@@]12C(=O)C(C)C(=O)[C@]1(C)C(C)=C[C@H]1[C@]3(C=O)CC[C@H](OC(C)=O)C(C)(C)[C@H]3CC[C@@]12C (some centres undefined),> 100,> 100,> 100,> 100,> 100,> 100,> 100,> 100,> 100,> 100,63.8,> 100,> 100,> 100,> 100,> 100,> 100,> 100
O=C(/C=C/c1ccccc1)CSc1nc2ccc(I)cc2c(=O)n1Cc1ccccc1,3.74,51.9,> 100,> 37.2,> 100,> 100,> 100,> 95.7,> 100,> 100,> 59.2,> 90.6,99.3,> 100,66.9,> 100,> 100,> 100
COc1ccc(C(=O)N(C(=S)OCCOc2ccccc2)c2ccccc2)cc1,> 100,> 100,> 100,96.6,> 100,> 100,> 100,27.9,> 100,> 100,66.3,> 100,,> 100,> 100,> 100,> 100,> 100
O=c1oc2c(ccc3ccccc32)cc1C1=CSC2=NCCN12,> 100,> 100,> 100,> 100,> 100,> 100,> 100,> 100,> 100,> 100,> 100,> 100,> 100,> 100,38.7,75.1,> 100,> 100
Cc1ccc(S(=O)(=O)n2c3c(c4ccccc42)CCN2CCC(Br)C[C@@H]32)cc1 (some centres undefined),28.6,30.8,26.3,38.1,31.5,24.9,30.1,25.4,15.8,32.5,35.2,23.6,20.2,34.8,28.4,29.1,24.4,26.1
CC(C)/C(Cl)=N\OC(=O)Nc1ccc(F)cc1F,34.3,38.9,15.8,13.8,30.6,32.8,43.1,33.6,22.7,21.2,> 21.7,6.69,27.4,8.53,34,31.7,21.8,3.31
COC(=O)CC(=O)Nc1sccc1S(=O)(=O)c1ccccc1,> 100,> 100,> 100,> 100,> 100,> 100,> 100,> 100,> 100,> 100,> 100,43.5,> 100,> 100,41.6,> 100,> 100,> 100
Oc1ccc(/C=C/c2ccc3cccc(O)c3n2)cc1O,> 100,> 100,37.7,30.8,9.46,20.6,13.9,9.65,44.7,2.56,> 100,46,13.4,20.7,26.9,12.3,> 100,> 100

# Source: PubChem BioAssay (NCI)
